The values below come from US9872514B2, “Compounds, compositions, and methods for reducing or eliminating bitter taste” (Chromocell Corporation, priority 2010, dated 2018).

Holding throughout (assay type): in vivo, humans
Assay [1] concerns bitter taste of an aqueous solution of KCl. As to the kind of experiment: Sip and spit bitterness rating of aqueous KCl test solutions. As to conditions: aqueous KCl 4.85 g/L, 1% EtOH, bitterness scored 0-15 vs KCl standard, dash = none of the tested conc.; for minimal effective concentration: Homo sapiens. The method, then: An amount of this stock compound solution is then added to an aqueous KCl solution. Enough EtOH is then added to the resulting stock compound/KCl solution so that the final KCl test solution contains 1% EtOH. KCl solution standards were similarly prepared by dissolving various amounts of KCl in water and ethanol without adding any test compound.
The effect of the test compounds an the perception of the bitter taste of an aqueous solution of KCl in humans was evaluated using a “sip and spit” test as follows.
(§1) A set of KCl solution standards was developed and each standard solution was assigned a bitterness taste score of 0-15 (corresponding to aqueous KCl concentrations of 0 mM-120 mM). Panelists were trained to recognize these standards. In addition, before each day of testing, panelists were tested to see if they could determine differences in taste between the standard solutions. If a panelist was unable to recognize a change in KCl concentration, they were excluded from the panel for that day.
(§2) In a blind taste test, panelists were asked to compare the bitter taste of a small quantity (e.g., 8 ml) of each of the KCl Test Solutions to the taste of a KCl solution standard, without swallowing (see, e.g., Table 1). Specifically, panelists were asked to rate the bitterness of each KCl Test Solution on a scale of 0-15 using the same scale developed for the KCl solution standards. Each sample was tested in 2-4 discrete taste test experiments. Panelists were asked to rinse with water, eat a cracker, and wait approximately 10 minutes between samples.

The test system of assay [2] is bitter taste of KCl foodstuff slurries. Kind of assay: Two-alternative forced choice (2AFC) sip and spit test of KCl turkey foodstuff slurries. Particulars: Homo sapiens, turkey slurry, 1.6% KCl, 2AFC vs KCl slurry standard, dash = none of the tested conc. How it is done: Edible KCl food compositions (“KCl test foodstuff slurries”) were prepared as follows. Dehydrated, salt-free turkey powder was weighed and mixed with various amounts of KCl and/or NaCl and then solubilized with boiling water to create a homogenized solubilized turkey slurry. Varying amounts of the test compounds were dissolved in an amount of ethanol or water (depending on the solubility of the compound) to create a 5 mg/mL stock compound solution. An amount of this stock compound solution was then added to the turkey slurry. Enough EtOH is then added to the resulting stock compound/turkey slurry so that the slurry contains 1% EtOH. The slurry was again homogenized by boiling and mixing and allowed to cool to yield the final KCl test foodstuff slurry for taste testing KCl foodstuff slurry standards were similarly prepared without any test compound.
The effect of the test compounds on the perception of the bitter taste of KCl foodstuff slurries in humans was evaluated using a two-alternative-forced-choice “sip and spit” test as follows.
In a blind taste test, panelists received two portions of turkey slurry—one portion being the KCl foodstuff slurry standard and the other being one of the KCl test foodstuff slurries (each prepared as described in Example 5). The panelists tasted each of the portions by sipping and spitting. Each sample was tested in 2-4 discrete taste test experiments. Panelists were asked to rinse with water, eat a cracker, and wait about 10 minutes between samples. In each case, the panelists were asked to compare the bitter taste of the two turkey samples to each other (i.e., panelists were asked to indicate which sample was less bitter).

For assay [3], the system named is bitter taste of an aqueous solution of potassium lactate. Kind of assay: Sip and spit bitterness rating of aqueous potassium lactate test solutions. Particulars: Homo sapiens; aqueous potassium lactate 41 g/L, 1% EtOH; dash = none of the tested conc.; read-out: Conc. Where Decrease in Bitter Taste Was Discerned. How it is done: as §1, §2
Edible potassium lactate solution compositions (“potassium lactate test solutions”) were prepared by first dissolving varying amounts of the test compounds in an amount of ethanol or water (depending on the solubility of the compound) to create a 5 mg/mL stock compound solution. An amount of this stock compound solution is then added to an aqueous potassium lactate solution. Enough EtOH is then added to the resulting stock compound/potassium lactate solution so that the final potassium lactate test solution contains 1% EtOH. Potassium lactate solution standards were similarly prepared by dissolving various amounts of potassium lactate in water and ethanol without adding any test compound.
The effect of the test compounds on the perception of the bitter taste of an aqueous solution of potassium lactate in humans was evaluated using the “sip and spit” test described in Example 2.

Where [4] appears, read: read-out: Conc. Where Decrease in Bitter Taste Discerned and p ≦ 0.1.
Where [5] appears, read: read-out: Conc. Where Decrease in Bitter Taste Was Discerned.
The mark [6] stands for this setting: read-out: Conc. at Which At Least 50% of Panelist Discerned Decrease in Bitter Taste.

Like-named read-outs stand apart in the source and are kept apart here.

As to `C/C=C/C(=O)C1=C(C)CCCC1(C)C` [Compound 1], the minimal effective concentration in assay [1] (setting [4]) and in assay [1] (setting [5]) was 0.1 µg/mL in each case.
As to `CC(=O)CCC1=C(C)CCCC1(C)C` [Compound 4], the minimal effective concentration in assay [1] (setting [4]) worked out at 1 µg/mL.
Consider `CC(=O)/C=C/C1C(C)=CCCC1(C)C` (stereo not drawn) [Compound 5], for which the minimal effective concentration in assay [1] (setting [4]) and in assay [1] (setting [5]) was 0.1 µg/mL throughout.
In the case of `CC(=O)CCC1C(C)=CCCC1(C)C` (stereo not drawn) [Compound 6], the minimal effective concentration in assay [1] (setting [4]) amounted to 1 µg/mL.
Consider `CC(C)=CCCC(C)CCO` (stereo not drawn) [Compound 7], for which the minimal effective concentration in assay [1] (setting [5]) worked out at 10 µg/mL.
On to `CC(C)=CCCC(C)CCOC=O` (stereo not drawn) [Compound 8], for which the minimal effective concentration was found to be 10 µg/mL in assay [1] (setting [5]) and 1 µg/mL in assay [2] (setting [6]).
As to `CC(=O)OCCC(C)CCC=C(C)C` (stereo not drawn) [Compound 9], the minimal effective concentration in assay [1] (setting [5]) was determined as 10 µg/mL.
`CCCCC(=O)OCCC(C)CCC=C(C)C` (stereo not drawn) [Compound 12]: in assay [1] (setting [5]), the minimal effective concentration stood at 10 µg/mL.
As to `CC(C)=CCCC(C)CC=O` (stereo not drawn) [Compound 13], in assay [1] (setting [5]), the minimal effective concentration was 1 µg/mL.
The same measure, in the same setting: next, `CC(CC=O)CCCC(C)(C)O` (stereo not drawn) [Compound 17]: 1 µg/mL.
On the same count and under the same terms, then `COC(CC(C)CCCC(C)(C)O)OC` (stereo not drawn) [Compound 18], with 10 µg/mL.
Regarding `CC(=O)OC/C=C(\C)CCC=C(C)C` [Compound 21], the minimal effective concentration in assay [1] (setting [5]) and in assay [2] (setting [6]) was 10 µg/mL each time.
Regarding `CCCC(=O)OC/C=C(\C)CCC=C(C)C` [Compound 23], in assay [1] (setting [4]), the minimal effective concentration was 1 µg/mL.
For `CC(C)=CCC/C(C)=C/COC(=O)CC(C)C` [Compound 24], the minimal effective concentration in assay [1] (setting [5]) came out at 10 µg/mL.
Regarding `CC(C)=CCC/C(C)=C\COC(=O)CC(C)C` [Compound 25], the minimal effective concentration in assay [1] (setting [4]) stood at 1 µg/mL.
For `CC(=O)CC/C=C(\C)CCC=C(C)C` [Compound 29], the minimal effective concentration in assay [1] (setting [5]) is 1 µg/mL.
Same read-out and setting: next, `CCCC(=O)OC/C=C(/C)CCC=C(C)C` [Compound 33]: 1 µg/mL; `CC(=O)Oc1c(C)c(C)c2c(c1C)CC[C@@](C)(CCCC(C)CCCC(C)CCCC(C)C)O2` (stereo partly drawn) [Compound 45]: 1 µg/mL; `Cc1cc(O)cc2c1O[C@](C)(CCC[C@H](C)CCC[C@H](C)CCCC(C)C)CC2` [Compound 49]: 10 µg/mL.
Same read-out and setting: then `CC(=O)Oc1c(C)c(C)c2c(c1C)CCC(C)(CCCC(C)CCCC(C)CCCC(C)C)O2` (stereo not drawn) [Compound 50], with 1 µg/mL.
For `O=C(O)c1ccccc1` [Compound 54], in assay [1], the “Conc. Where Decrease in Bitter Taste Was Discerned” value came out at 10 ppm.
Turning to `CCCOC(=O)c1ccccc1` [Compound 56], the minimal effective concentration in assay [1] (setting [5]) was determined as 1 µg/mL.
Consider `O=C(O)c1ccc(O)cc1` [Compound 58], for which the minimal effective concentration in assay [1] (setting [4]) and in assay [1] (setting [5]) was 10 µg/mL throughout.
With `O=C(O)c1ccc(O)cc1O` [Compound 59], the minimal effective concentration in assay [1] (setting [5]) amounted to 1 µg/mL.
On the same count and under the same terms, next, `COC(=O)c1ccc(O)cc1` [Compound 61]: 1 µg/mL; `CCOC(=O)c1ccc(O)cc1` [Compound 62]: 10 µg/mL.
For the compound `CCCCOC(=O)c1ccc(O)cc1` [Compound 63], the minimal effective concentration in assay [1] (setting [4]) came out at 1 µg/mL; in assay [2] (read-out: Conc. at Which At Least 50% of Panelist Discerned Decrease in Bitter Taste and p ≦ 0.1) it was 30 µg/mL.
On to `COC(=O)c1ccccc1OC` [Compound 68], for which the minimal effective concentration in assay [1] (setting [5]) turned out to be 10 µg/mL.
Consider `CC(O)c1ccccc1` (stereo not drawn) [Compound 71], for which the minimal effective concentration in assay [1] (setting [4]) was determined as 1 µg/mL.
`CC(C)CC(=O)O[C@@H]1C[C@@H]2CC[C@@]1(C)C2(C)C` [Compound 78]: the minimal effective concentration in assay [1] (setting [5]) came out at 1 µg/mL.
`CC(=O)OC1C2(C)CCC(C2)C1(C)C` (stereo not drawn) [Compound 81]: in assay [1] (setting [5]), the minimal effective concentration is 10 µg/mL.
For the compound `CC(=O)O[C@@H]1C[C@@H]2CC[C@@]1(C)C2(C)C` [Compound 88], the minimal effective concentration in assay [1] (setting [4]) and in assay [2] (setting [6]) was 1 µg/mL in each case.
In the case of `C[C@@H]1[C@@H](O)C[C@H]2C[C@@H]1C2(C)C` [Compound 90], in assay [1] (setting [5]), the minimal effective concentration was 1 µg/mL.
Regarding `CC1(C)[C@H]2CC[C@H](CO)[C@@H]1C2` [Compound 92], the minimal effective concentration in assay [1] (setting [4]) and in assay [1] (setting [5]) was 1 µg/mL throughout.
As to `CC(=O)OCC1=CC[C@@H]2C[C@H]1C2(C)C` [Compound 94], in assay [1] (setting [5]), the minimal effective concentration is 10 µg/mL.
Still for that read-out and setting: next, `O=C1C[C@@H](c2ccccc2)Oc2cc(O)cc(O)c21` [Compound 97]: 1 µg/mL.
Still for that read-out and setting: then `COc1ccc(-c2cc(=O)c3c(OC)c(OC)c(OC)cc3o2)cc1` [Compound 99], with 1 µg/mL.
Same read-out and setting: next, `COc1cc(OC)c2c(=O)cc(-c3ccccc3)oc2c1` [Compound 100]: 10 µg/mL.
Consider `O=c1cc(-c2ccccc2)oc2cc(O)ccc12` [Compound 101], for which the minimal effective concentration in assay [1] (setting [5]) came to 1 µg/mL.
As to `COc1cc(-c2oc3cc(O)cc(O)c3c(=O)c2O)ccc1O` [Compound 102], the minimal effective concentration in assay [1] (setting [4]) is 1 µg/mL; in assay [1] (setting [5]), 1 µg/mL; in assay [2] (setting [6]) it was 10 µg/mL; in assay [3], 1 µg/mL.
Turning to `Oc1cc(O)c2c(c1)O[C@H](c1ccc(O)c(O)c1)[C@@H](O)C2` [Compound 104], the minimal effective concentration in assay [1] (setting [5]) is 10 µg/mL.
The same measure, in the same setting: next, `Oc1cc(O)c2c(c1)O[C@@H](c1cc(O)c(O)c(O)c1)[C@H](O)C2` [Compound 106]: 1 µg/mL.
On the same count and under the same terms, then `O=C(O[C@@H]1Cc2c(O)cc(O)cc2O[C@@H]1c1ccc(O)c(O)c1)c1cc(O)c(O)c(O)c1` [Compound 107], with 10 µg/mL; and `O=C(O[C@@H]1Cc2c(O)cc(O)cc2O[C@@H]1c1cc(O)c(O)c(O)c1)c1cc(O)c(O)c(O)c1` [Compound 108], with 1 µg/mL.
On to `O=c1c(O)c(-c2ccc(O)c(O)c2)oc2cc(O)cc(O)c12` [Compound 111], for which the values for the minimal effective concentration in assay [1] (setting [4]) and in assay [2] (setting [6]) were 10 µg/mL and 1 µg/mL, respectively.
Turning to `O=C(/C=C/C=C/c1ccc2c(c1)OCO2)N1CCCCC1` [Compound 113], in assay [1] (setting [5]), the minimal effective concentration turned out to be 1 µg/mL.
For the compound `CC(C)C(=O)OCc1ccc2c(c1)OCO2` [Compound 117], the minimal effective concentration in assay [1] (setting [5]) worked out at 10 µg/mL.
As to `C/C=C/c1ccc2c(c1)OCO2` [Compound 118], in assay [3], the minimal effective concentration turned out to be 1 µg/mL.
As to `C=C1CC[C@H]2O[C@]2(C)CC[C@@H]2[C@@H]1CC2(C)C` [Compound 121], the minimal effective concentration in assay [1] (setting [4]) and in assay [1] (setting [5]) was 40 µg/mL each time.
On to `COc1ccc2c(c1)[nH]c1c(C)nccc12` [Compound 130], for which the minimal effective concentration in assay [1] (setting [5]) was 40 µg/mL.
Still for that read-out and setting: next, `COc1c(C(=O)CC(=O)c2ccccc2)ccc2occc12` [Compound 132]: 1 µg/mL.
In the case of `O=C1CC(C(=O)O)C(C(=O)O)O1` (stereo not drawn) [Compound 133], the minimal effective concentration in assay [1] (setting [4]) and in assay [1] (setting [5]) was 2 µg/mL each time.
